One data set addresses A2A. Set-up: method as in PMID 21810444, PMID 9933143, PMID 17236762. To be noted: in vitro binding; rat or human; cited from earlier work.
Data set [1] in a line: Plasma and brain exposure in satellite lesioned rats. The class given is in vivo, rat. The conditions noted are these: rat, mean ± SD; for concentration at 60 min: po, 30 mg/kg, 60 min after dosing; for concentration at 90 min: ip, 3 mg/kg, 90 min after dosing. On the procedure: Satellite lesioned rats (400–450 g) were anesthetized with isoflurane and sacrificed by exsanguination. Blood samples were collected in EDTA centrifuged 10 min at 3000 rpm at 4°C to obtain plasma and stored at −20°C prior the analysis. Brains were perfused by saline collected and immediately stored at −20°C prior the analysis. Brain samples were added to 4 volumes of water before being homogenized. A structural analog compound was added as internal standard to the samples and proteins were crashed using 8 volumes of acetonitrile. Compounds were analyzed on an API5000 mass spectrometer (ABSciex, Framingham, MA, USA.) equipped with a turbo ion spray source and interfaced with an Agilent 1290 Infinity LC system (Agilent Technologies, Waldbroon, Germany). The mass spectrometer was operated in the positive ionization mode with Multiple Reactions Monitoring used to quantify the various analytes (407 to 292 for Tozadenant; 398 to 109 for Radiprodil, 346 to 105 for Sch-58261 and 342 to 100 for Co-101244). A Waters HSS T3 column (2.1×30 mm, 1.8 µm) was used. The mobile phase consisted of 100% water with 0.1% formic acid (phase A) and 100% acetonitrile with 0.1% formic acid (phase B). The flow rate was 1 mL/min. A linear gradient was performed from 0 to 1 min (95 to 30% phase A), a jump to 90% B in 0.01 min, a hold period of 1.29 min at 90% phase B followed by equilibration at the initial condition was applied before the following injection.
Before undertaking the study, each A2A and NR2B antagonist was tested individually. The doses were selected on the basis of preliminary dose-response curves performed separately for each drug and submaximal dose (i.e. response observed is not at its maximal level) of each drug was selected for the combination studies. The two drugs were administered separately via an intraperitoneal (ip) injection with a 2-minute interval between the two drugs. Five minutes after the second injection, animals were placed in the testing cage for behavioural recording. Due to formulation and exposure issues, Tozadenant and Radiprodil had to be administered orally and therefore recording was started 60 minutes post dosing at this corresponds to maximum plasma concentrations. Eight drug-naïve animals were used for each of the four procedures; 32 in total for each combination. All behavioral experiments were conducted between 8.00 AM and 2.00 PM at the latest. Preliminary pharmacokinetic assays investigated the plasma and brain disposition of selected drugs administered alone or in combination (ie. Tozadenant/Radiprodil, and Sch-58261/Co-101244; 3 animals per group). Tozadenant and Radiprodil were measured in samples obtained 60 minutes after single oral administration at 30 mg/kg. Sch-58261 and Co-101244 were measured in samples collected 90 min after single intraperitoneal administration at 3 mg/kg.

In the next data set the target is A1. Set-up: method as in PMID 21810444, PMID 9933143, PMID 17236762. To be noted: in vitro binding; rat or human; cited from earlier work.
Another data set relates to NR2A. The arrangement: method as in PMID 19594762. The conditions noted are these: In vitro Binding; cited from earlier work.
Another data set has as its system NR2B. The conditions noted are these: In vitro Binding; cited from earlier work.
The mark [2] stands for this setting: brain, administered alone, oral 30 mg/kg, expressed per g tissue, 3 animals, read-out: Brain concentration.
[3] abbreviates: brain, administered in combination Tozadenant + Radiprodil, both oral 30 mg/kg, expressed per g tissue, 3 animals, read-out: Brain concentration.
The mark [4] stands for this setting: plasma, administered alone, oral 30 mg/kg, 3 animals, read-out: Plasma concentration.
Setting [5] is: plasma, administered in combination Tozadenant + Radiprodil, both oral 30 mg/kg, 3 animals, read-out: Plasma concentration.

Where two headings read alike, the source gives them in different places.

On to `COc1ccc(N2CCOCC2)c2sc(NC(=O)N3CCC(C)(O)CC3)nc12` [Tozadenant], for which the figures for the Ki at A2A and at A1 were 4.9 nM and 1320 nM, respectively. Also, the concentration at 60 min in data set [1] (setting [2]) came out at 180 ± 40 ng/mL; in data set [1] (setting [3]) it was 110 ± 40 ng/mL; in data set [1] (setting [4]), 6050 ± 950 ng/mL; in data set [1] (setting [5]) it was 5040 ± 140 ng/mL.
Take `O=C(Nc1ccc2[nH]c(=O)oc2c1)C(=O)N1CCC(Cc2ccc(F)cc2)CC1` [Radiprodil]: the values for the IC50 in the data set with NR2A and with NR2B were above 10000 nM and 3 to 10 nM, respectively. Besides, the concentration at 60 min in data set [1] (setting [2]) amounted to 2630 ± 560 ng/mL; in data set [1] (setting [3]), 2590 ± 2480 ng/mL; in data set [1] (setting [4]) it was 4960 ± 850 ng/mL; in data set [1] (setting [5]) it was 5590 ± 2930 ng/mL.
Turning to `Nc1nc2c(cnn2CCc2ccccc2)c2nc(-c3ccco3)nn12` [Sch-58261], the concentration at 90 min in data set [1] (brain, administered alone, ip 3 mg/kg, expressed per g tissue, 3 animals (Co-101244 n = 2), read-out: Brain concentration) turned out to be 246 ± 34.7 ng/mL; in data set [1] (brain, administered in combination Sch-58261+Co-101244, both ip 3 mg/kg, expressed per g tissue, 3 animals, read-out: Brain concentration), 264 ± 38.3 ng/mL; in data set [1] (plasma, administered alone, ip 3 mg/kg, 3 animals (Co-101244 n = 2), read-out: Plasma concentration) it was 97.2 ± 10.1 ng/mL; in data set [1] (plasma, administered in combination Sch-58261+Co-101244, both ip 3 mg/kg, 3 animals, read-out: Plasma concentration), 112 ± 4.16 ng/mL.

The record behind these values is article PMC4267740, “Unprecedented Therapeutic Potential with a Combination of A2A/NR2B Receptor Antagonists as Observed in the 6-OHDA Lesioned Rat Model of Parkinson's Disease” (PLoS ONE, 2014).
